In brackets after ≈: the same amount, converted by molar mass.
Columns and labels:
[1] = tested on: E. faecium CCUG 37832; experiment: In vitro MIC bioassay (broth microdilution, 384 well); assay type: cell-based, Enterococcus faecium; conditions: Mueller-Hinton broth, 2.7% DMSO
Protocol: (§1) Minimal inhibitory concentrations against a selection of Gram-positive indicator organisms (MICs) were determined according to Clinical and Laboratory Standards Institute protocols by microdilution tests using in a 384 well format. The indicator strains were incubated in TSB medium over night until OD600-0.4, then diluted to OD600=0.1 in TSB medium and further 45× in assay medium (Mueller-Hinton broth, Difco). Inoculated medium was distributed into assay plates. Inoculated wells were added a 2× dilution series of either isolated compound or vancomycin (reference) diluted in DMSO, giving a final DMSO concentration in each well of 2.7%, and final concentrations of active compound between 0 and 540 μg/ml (23 different concentrations). Four parallels were assayed for each compound and concentration. 0.5 mg of the compound produced by strain M1152ΔmatAB (P08-G05_C16) was purified on preparative HPLC, and the pure compound was tested in bioassay against a panel of strains. The indicator organisms were M. luteus ATCC 9341, Staphylococcus aureus ATCC 29213, Staphylococcus aureus ATCC 43300 (MRSA), Enterococcus faecium CCUG 37832, Enterococcus faecium CTC 492.

[2] = tested on: E. faecium CTC 492; experiment: as above; assay type: cell-based, Enterococcus faecium; conditions: Mueller-Hinton broth, 2.7% DMSO
Protocol: as §1

Structure (SMILES): CN[C@H](CC(C)C)C(=O)N[C@H]1C(=O)N[C@@H](CC(N)=O)C(=O)N[C@H]2C(=O)N[C@H]3C(=O)N[C@H](C(=O)N[C@H](C(=O)O)c4cc(O)cc(O)c4-c4cc3ccc4O)[C@H](O)c3ccc(c(Cl)c3)Oc3cc2cc(c3O[C@@H]2O[C@H](CO)[C@@H](O)[C@H](O)[C@H]2O[C@H]2C[C@](C)(N)[C@H](O)[C@H](C)O2)Oc2ccc(cc2Cl)[C@H]1O [Vancomycin, vancomycin]
- MIC70: E. faecium CCUG 37832 [1]: 270 µg/mL (≈ 186 µM)
- MIC70: E. faecium CTC 492 [2]: 1.06 µg/mL (≈ 0.731 µM)

— patent US20260109688A1, “NOVEL ANTIBIOTIC COMPOUND” (SINTEF TTO AS, priority 2022, published 2026)
